Measured values reported in US6858631B1, “Polymorphic, amorphous and hydrated forms of 5-chloro-3-(4-methanesulfonylphenyl)-6′-methyl-[2,3′]bipyridinyl” (Merck & Co., Inc., priority 1999, dated 2005).

What was measured:
[1] = Relative solubility of polymorphic forms; type: physicochemical; details: at temperatures below 45° C.
Description: (§1) Forms I and IV are enantiotropic with Form IV converting to Form I at temperatures greater than 45° C. when in contact with organic solvents.

[2] = Relative thermodynamic stability and interconversion of polymorphic forms; type: physicochemical
Description: as §1

In the case of Cc1ccc(-c2ncc(Cl)cc2-c2ccc(S(C)(=O)=O)cc2)cn1 [Form IV, 5-chloro-3-(4-methanesulfonylphenyl)-6′-methyl-[2,3′]bipyridinyl], the “solubility relative to Form I” value [1] is reported as “slightly less soluble”, the “stability relative to Form I” value ([2]; at temperatures below 45° C.) is reported as “slightly more stable” and the “temperature at which Form IV converts to Form I (enantiotropic)” value ([2]; in contact with organic solvents) is reported as “greater than 45 °C”.
